Experimental findings from patent US5413787A, “Bioparyl, a biological regulator, active against various pathologies” (priority 1988, dated 1995) are described below.

The test system of test [1] is RNases from human fibrosis skin. Nature of the test: In vitro RNase activity of radiation-induced skin fibrosis extract (r-RNA degradation). The class given is biochemical. As to conditions: FIG. 7. As to the method:
Sample of skin fibrosis induced by radiation has been broken in a mortar (4° C.) in the presence of Tris-HCl buffer 0.02M containing 0.06M KCl and 0.001M MgCl2. Final volume: 1.5 ml. The activity of RNases present in this extract has been tested with 4 S RNA and ribosomal RNA (r-RNA); 0.01; 0.02; 0.03 and 0.04 ml of enzyme extract were incubated in the presence of radioactive ^3 H-r-RNA or ^3 H-4 S RNA. Incubation time: 15 min. at 36° C. The results are illustrated in FIG. 7. Degradation of labelled RNA is linear in function of increasing concentration of the extract. r-RNA is more rapidly degraded than 4 S RNA. […] Ferric iron (FeCl3), at low concentrations, stimulates r-RNA degradation; but at higher concentrations it inhibits it.

The subject of test [2] is RNases from patients affected by cancers, auto-immune diseases or viral pathologies. Nature of the test: Effect of iron on in vitro activity of RNases from patients. In kind it is biochemical, human. As to conditions: cancers (leukemia, solid cancers). As to the method: (§1) Bioparyl dissolved in distilled water (pH 7.0, 5 mg/ml) is used (0.01 to 0.05 ml). Incubation medium (0.15 ml final volume) contains: Tris-HCl buffer, 10^-2 M pH 7.60: 0.05 ml; ^3 H-RNA (r-RNA or 4 S RNA), 100 μg, 15,000 CPM: 0.05 ml; ten-times diluted plasma: 0.01 to 0.05 ml. After incubation at 36° C. for 10 min. (water bath) (generally necessary conditions but that may vary in case of necessity), the reaction is stopped by addition of 3 ml trichloroacetic acid (TCA) (5%); the tubes are cooled in order to assure a good precipitation of proteins and undegraded ^3 H-RNA.
(§2) The precipitate is filtered on glass millipore (GF/C, Whatman), washed with 5% TCA solution then with 95° ethyl alcohol. The filters are dried and the radioactivity determined in a scintillation spectrometer. The results are expressed as percent of non-degraded radioactive RNA, the radioactivity of initial intact RNA being taken as 100%.
(§3) One knows that the RNases enable the furnishing of the RNA primers necessary for the replication of DNA, and that the primers accepted by DNA from healthy tissues are not the same as the primers required for replication of DNA from cancer tissues. Thus, regulation of RNases (enzymes able to provide primers in cells)is a capital phenomenon in carcinology and virology.

Test [3] relates to RNases in plasma of healthy persons. Nature of the test: Effect of iron on in vitro activity of RNases of healthy persons. In kind it is biochemical, human. As to conditions: FIG. 5. On the procedure: as §1, §2, §3

Turning to `[Cl][Fe]([Cl])[Cl]` [Ferric iron], the “r-RNA degradation by fibrosis skin RNases, FeCl3 higher concentrations” value in test [1] (at higher concentrations) was “inhibits”. For the same compound, in test [1] (at low concentrations), the “r-RNA degradation by fibrosis skin RNases, FeCl3 low concentrations” value was “stimulates”. The “in vitro activity of RNases from patients under ferric iron” value in test [2] is recorded as “strongly accelerates”. The “in vitro activity of RNases of healthy persons under iron” value in test [3] was “without effect”.
